From article PMC8355244, “A fragment-based approach identifies an allosteric pocket that impacts malate dehydrogenase activity” (Communications Biology, 2021)
Where “and” joins values, the source holds several entries; their conditions need not be identical. Equal entries are not always repeated.

Molecular target: T1, PfMDH (Plasmodium falciparum, UniProt Q6VVP7)
T1 construct: The full-length WT PfMDH gene was cloned into pETM-13; made in house; host or cells: E. coli Rosetta 2 (DE3) pLysS
Experiment: Thermal shift assay (TSA)
Assay type: binding
Conditions: for TSA melting curve raw signal: triplicate columns; for TSA melting curve raw fluorescence signal: three replicate columns
Description: The TSA experiment was conducted in a BioRad CSX 96 (Biorad). Each reaction consisted of 1 mM of compound (100 mM stock in 100% (v/v) DMSO) and 10 μM PfMDH in 100 mM Na–phosphate buffer pH 7.4, 400 mM NaCl, and 10× Sypro Orange (Invitrogen) for a total volume of 100 μl. Control experiments were performed with 1% (v/v) DMSO. Inflection points were determined using BioRad CFX96™ control software. Generally, a temperature increase of over 1 °C is interpreted as a result of the stabilization of the protein-ligand interaction. On the contrary, a negative shift is considered a destabilization caused by the fragment.

T1 sequence (Q6VVP7 entry or part of it): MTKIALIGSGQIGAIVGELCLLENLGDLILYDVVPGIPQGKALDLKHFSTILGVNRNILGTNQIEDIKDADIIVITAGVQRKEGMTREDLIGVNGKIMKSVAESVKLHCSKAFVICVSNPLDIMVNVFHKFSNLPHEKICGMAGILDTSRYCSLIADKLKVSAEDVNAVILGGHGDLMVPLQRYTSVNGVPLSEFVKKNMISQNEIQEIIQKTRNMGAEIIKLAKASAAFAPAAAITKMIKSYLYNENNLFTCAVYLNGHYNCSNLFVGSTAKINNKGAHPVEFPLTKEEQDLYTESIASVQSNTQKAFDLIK

## Cc1ccc(-c2csc(N)n2)cc1C [compound 5a]
1 mM compound vs DMSO control
  ΔTm at 1000 µM: -4 °C
1 mM compound, 10 μM PfMDH, DMSO control Tm 58
  Tm: 54.0 ± 0.2 °C
Temperature 25
  TSA melting curve raw signal: 4361,22691625664 and 4136,47480077282
Temperature 28.5
  TSA melting curve raw signal: 4004,87351225735 and 4183,98281996697 and 3977,18518163549
Temperature 29
  TSA melting curve raw signal: 3986,17580138025 and 4159,213140841 and 3954,9246822172
Temperature 29.5
  TSA melting curve raw signal: 3965,52273011401 and 4133,77316232738 and 3931,4868089647
Temperature 30
  TSA melting curve raw signal: 3942,69196918976 and 4107,074098257 and 3906,46894255822
Temperature 30.5
  TSA melting curve raw signal: 3918,20361111847 and 4079,7505229192 and 3880,66961233132
Temperature 31
  TSA melting curve raw signal: 3892,85755253156 and 4052,78803951145 and 3854,85757088369
Temperature 31.5
  TSA melting curve raw signal: 3868,35453137919 and 4026,78761104422 and 3830,51973110108
Temperature 32
  TSA melting curve raw signal: 3846,14582452398 and 4002,89304325356 and 3808,96381740298
Temperature 32.5
  TSA melting curve raw signal: 3827,35535230328 and 3981,88234223881 and 3791,26035282333
Temperature 33
  TSA melting curve raw signal: 3812,58320085949 and 3964,3028642829 and 3777,54515038218
Temperature 33.5
  TSA melting curve raw signal: 3801,69756150235 and 3949,2862317403 and 3767,92816787175
Temperature 34
  TSA melting curve raw signal: 3794,14835836044 and 3937,14669832695 and 3761,78012801461
Temperature 34.5
  TSA melting curve raw signal: 3789,41768425867 and 3927,49825494442 and 3758,75347546959
Temperature 35
  TSA melting curve raw signal: 3787,20107392869 and 3920,20996880984 and 3758,62073564665
Temperature 35.5
  TSA melting curve raw signal: 3787,42445071158 and 3914,62343444524 and 3761,24267883563
Temperature 36
  TSA melting curve raw signal: 3789,87806432584 and 3911,1710367624 and 3766,28559252083
Temperature 36.5
  TSA melting curve raw signal: 3794,85229304264 and 3909,49204056619 and 3773,84282790235
Temperature 37
  TSA melting curve raw signal: 3802,25424487634 and 3909,25385384206 and 3783,72084315967
Temperature 37.5
  TSA melting curve raw signal: 3812,04395610452 and 3910,368484837 and 3795,67572672777
Temperature 38
  TSA melting curve raw signal: 3823,44040340727 and 3913,02621291175 and 3809,89581343172
Temperature 38.5
  TSA melting curve raw signal: 3837,03387753428 and 3917,20362777738 and 3826,4956570889
Temperature 39
  TSA melting curve raw signal: 3852,32039847376 and 3922,75702566821 and 3845,46925064995
Temperature 39.5
  TSA melting curve raw signal: 3869,53236426586 and 3930,26334549594 and 3867,32940969988
Temperature 40
  TSA melting curve raw signal: 3888,57436192082 and 3939,63549689652 and 3891,99828571263
Temperature 40.5
  TSA melting curve raw signal: 3909,9422248531 and 3951,08452102982 and 3919,26474950283
Temperature 41
  TSA melting curve raw signal: 3933,37089433234 and 3964,6560667334 and 3949,14976176316
Temperature 41.5
  TSA melting curve raw signal: 3959,61189650686 and 3980,53295877896 and 3981,80921424824
Temperature 42
  TSA melting curve raw signal: 3988,71833711846 and 3998,73387424263 and 4016,77538143681
Temperature 42.5
  TSA melting curve raw signal: 4021,21607007206 and 4019,84430210471 and 4054,60967755587
Temperature 43
  TSA melting curve raw signal: 4057,66089779623 and 4044,0111947974 and 4095,39361771176
Temperature 43.5
  TSA melting curve raw signal: 4098,50799079596 and 4071,35680793258 and 4139,49703067488
Temperature 44
  TSA melting curve raw signal: 4143,7029279742 and 4102,93490558282 and 4187,23267299696
Temperature 44.5
  TSA melting curve raw signal: 4193,76415817757 and 4139,12758979339
Temperature 73.5
  TSA melting curve raw fluorescence signal: 6299,79889324093 and 6231,78067625527 and 6109,60097267495
Temperature 74
  TSA melting curve raw fluorescence signal: 6263,77685489112 and 6199,60301810331 and 6079,58574419186
Temperature 74.5
  TSA melting curve raw fluorescence signal: 6227,81230039343 and 6168,07294306546 and 6050,3648537714
